Consider five molecules from patent US20220305013A1, “STABLE COLLOIDAL DRUG AGGREGATES AND METHODS OF MANUFACTURE AND USE THEREOF” (THE GOVERNING COUNCIL OF THE UNIVERSITY OF TORONTO, priority 2019, published 2022).

Each structure is given as a SMILES string.

The nature of data set [1]: Critical aggregation concentration (CAC) by dynamic light scattering in pH-adjusted PBS. Format: physicochemical. Conditions: for critical aggregation concentration (CAC) as a function of pH: pH 7.4 vs 5.5, DLS; for CAC over a range of pH values: DLS. How it is done:
CAC values are calculated by preparing colloidal formulations with different concentrations and measuring the scattering intensity (or fluorescence intensity when appropriate). The data is then fit to Equation S4, which was derived from first principles (Equations S1-S3), using the MATLAB curve fitting toolbox to obtain the critical aggregation concentration (CAC) under the conditions used.
Colloids were formulated as described in Example 1. […] 100 μL of each sample was analyzed by DLS and the CAC's calculated as described in Example 1.
Colloids were formulated as described in Example 1. Briefly, solutions of fulvestrant analogue in DMSO were prepared at various concentrations and then diluted 100-fold with PBS at different […]. 100 μL of each sample was analyzed by DLS and the CAC's calculated as described in Example 1.
Colloids were formulated as described in Example 1. Briefly, solutions of siramesine in DMSO were prepared at various concentrations and then diluted 100-fold with pH-adjusted PBS containing stabilizer (where applicable). 100 μL of each sample was analyzed by DLS and the CACs calculated as described in Example 1.

A short description of data set [2]: Drug release from colloids (centrifugation, drug in supernatant by HPLC-MS-MS). Format: physicochemical. The following applies: for amount of drug released from co-colloids as a function of pH / drug release over time after acidification to pH 5.5: 12.5 μM lapatinib, 37.5 μM fulvestrant, 0.01 mg/mL PLAC-PEG in PBS. How it is done:
Drug release was measured by centrifuging to pellet the colloids, and then by quantifying the drug in the supernatant. Colloid formulations were centrifuged at 16,000×g for 1 h, followed by withdrawal of 100 μL for quantification. Another 100 μL was withdrawn for DLS analysis to confirm that the colloids had completely settled out of solution. Non-centrifuged colloid suspensions were used as controls.
Drug concentration in samples from drug release and membrane permeability assays was quantified by high pressure liquid chromatography coupled with tandem mass spectrometry (HPLC-MS-MS). Protein was precipitated from samples in serum containing media by spiking with 10 μL of formic acid and adding acetonitrile to a final volume of 1 mL. The precipitated samples were then centrifuged at 16,000×g for 5 min to pellet the proteins. The drug-containing supernatant was then diluted in methanol such that the final drug concentration was less than 100 ng mL^−1. During the final dilution, internal standards (nilotinib for lapatinib and norethindrone for fulvestrant) were added to a final concentration of 25 ng/mL each. Standard curves were prepared in a similar way, by diluting 100 mM solutions of drug in DMSO with methanol to final concentrations of 100, 75, 50, 25, 10, 5, 2.5, and 1 ng mL^−1, each with 25 ng mL^−1 of internal standard.

A further data set can be described thus: Zeta potential. The data set is classed as physicochemical. Conditions: 0.1 mM KCl. How it is done:
Colloids were prepared as described above, but with a single addition of 0.1 mM KCl solution instead of water and buffer. Zeta potential was immediately assessed using a Malvern Nano-ZS (Malvern Panalytical).

Data set [3] can be described thus: Membrane permeability assay. Conditions: co-colloids 50 μM lapatinib, 150 μM fulvestrant, 0.04 mg/mL PLAC-PEG, 10% FBS, 6 h, 37° C., acidified vs not. The data set is classed as in vitro ADME.
Description: Supported artificial lipid membranes were prepared according to the manufacturer instructions (EMD Millipore cat #MATRNPS50). Briefly, a 1% (w/w) solution of egg lecithin in dodecane was prepared by sonicating until the solution was no longer cloudy. A 5 μL aliquot of this phospholipid solution was dropped by pipette into each well of the mesh plate, which wet the membrane and caused it to become translucent. Receiver solution was prepared as 1% (v/v) DMSO and 10% (v/v) FBS in PBS and 340 μL was pipetted into each well of the receiver plate. Lapatinib and fulvestrant solutions ranging from 0 to 5 μM for constructing the standard curve were prepared in identical media and pipetted into separate wells of the receiver plate. Colloids were prepared in PBS containing 10% (v/v) FBS as described above, and 150 μL was pipetted into the mesh plate wells corresponding to the receiver solution in the receiver plate. The mesh plate and receiver plate were gently mated, resulting in the receiver solution wetting the bottom of the phospholipid membrane. […] Finally, the stack was carefully disassembled and a 200 μL sample of receiver and standard curve solutions was withdrawn for drug quantification as described below. […]
Drug concentration in samples from drug release and membrane permeability assays was quantified by high pressure liquid chromatography coupled with tandem mass spectrometry (HPLC-MS-MS). […]
Data set [4] in a line: Acid responsiveness of colloids prepared at different pH (spun down, absorbance). The data set is classed as physicochemical. Conditions: with or without Herceptin as stabilizing agent. On the procedure: The colloids were prepared in different pH conditions, spun down, extracted from the supernatant by organic solvent, dried, reconstituted in DMSO and measured for absorbance.

For the molecule `Clc1ccccc1C(c1ccccc1)(c1ccccc1)n1ccnc1` [clotrimazole], the “critical aggregation concentration (CAC) as a function of pH” value (“critical aggregation concentration (CAC)” for short) in data set [1] is listed as “pH-dependent CACs”.

For `C[C@]12CC[C@@H]3c4ccc(O)cc4C[C@@H](CCCCCCCCC[S+]([O-])CCCC(F)(F)C(F)(F)F)[C@H]3[C@@H]1CC[C@@H]2O` (stereo partly drawn) [fulvestrant], in data set [1], the “CAC over a range of pH values” is recorded as “No change in CAC values” and the “critical aggregation concentration (CAC)” value is on record as “did not dissolve on acidification”. Moreover, in data set [2], the “amount of drug released from co-colloids as a function of pH” value is “unaffected by pH” and the “drug release over time after acidification to pH 5.5” value is given as “remained unresponsive to acid”. For the same molecule, the “zeta potential (surface charge)” value in “Zeta potential” is on record as “negative zeta potential”.

In the case of `CS(=O)(=O)CCNCc1ccc(-c2ccc3ncnc(Nc4ccc(OCc5cccc(F)c5)c(Cl)c4)c3c2)o1` [lapatinib], in data set [1], the “critical aggregation concentration (CAC)” value is on record as “pH-dependent CACs”. Further, in data set [2], the “amount of drug released from co-colloids as a function of pH” value is reported as “increased with increasing acidity” and the “drug release over time after acidification to pH 5.5” value is given as “rapidly reached an equilibrium that was sustained for 24 h”. For the same molecule, the “ionization state of released lapatinib” value in data set [2] (calculated by acid-base theory from release data, low pH) was “Most lapatinib that is released at low pH is ionized”. In addition, in data set [3], the transmembrane diffusion result is “reduced when the colloids were acidified”.

As for `Fc1ccc(-n2cc(CCCCN3CCC4(CC3)OCc3ccccc34)c3ccccc32)cc1` [siramesine], the “CAC over a range of pH values” in data set [1] is “increase in CAC values”.

`CNC(=O)c1cc(Oc2ccc(NC(=O)Nc3ccc(Cl)c(C(F)(F)F)c3)cc2)ccn1` [sorafenib]: in data set [1], the “CAC over a range of pH values” was “not pH-dependent” and the “critical aggregation concentration (CAC)” value is reported as “did not dissolve on acidification”. Besides, in data set [4], the “acid responsiveness of colloidal drug aggregate” value is “did not demonstrate acid responsiveness”.
